Source: patent US8637670B2, “Imidazo [4,5-C]quinoline derivatives and their use in the treatment of tumors and/or inflammation” (Piramal Enterprises Limited, priority 2009, dated 2014)

Assays:
IL-6 = experiment: Human monocyte assay, LPS-stimulated IL-6 (ELISA); assay type: cell-based; conditions: human monocytes, 1 μg/ml LPS, 5 hours
Description: (§1) The assay was designed as in the reference, Physiol. Res., 2003, 52, 593-598, the disclosure of which is incorporated by reference for the teaching of the assay.
(§2) Peripheral blood mononuclear cells (hPBMC) were harvested from human blood and suspended in RPMI 1640 culture medium containing 10% FCS, 100 U/mL penicillin and […] streptomycin (assay medium). Monocytes in the hPBMCs were counted using a Coulter Counter following which the cells were resuspended at 2×10^5 monocytes/mL. A cell suspension containing 2×10^4 monocytes was aliquoted per well of a 96-well plate. Subsequently, the hPBMCs were incubated for 4-5 hours at 37° C. under 5% CO2 (During the incubation, the monocytes adhered to the bottom of 96-well plastic culture plate). Following the incubation, the non-adherent lymphocytes were washed with assay medium and the adherent monocytes re-fed with assay medium. After a 48-hour incubation period (37° C., 5% CO2), monocytes were pretreated with various concentrations of compounds of Example 1-40 (prepared in DMSO) or vehicle (0.5% DMSO) for 30 minutes and stimulated with 1 μg/ml LPS (Escherchia coli 0111:B4, Sigma Chemical Co., St. Louis, Mo.). The incubation was continued for 5 hours at 37° C., 5% CO2. Supernatants were harvested, assayed for IL-6 and TNF-α by ELISA as described by the manufacturer (BD Biosciences, USA). Dexamethasone (10 μM) was used as standard for this assay. The 50% inhibitory concentration (IC50) values were calculated by a nonlinear regression method. In all experiments, a parallel plate was run to ascertain the toxicity of compounds of Example 1-40. The toxicity was determined using the MTS assay as described in Am. J. Physiol. Cell Physiol., 2003, 285, C813-C822.

OVCAR 3 = experiment: Cytotoxicity, propidium iodide assay, OVCAR 3; assay type: cell-based; conditions: Homo sapiens; Ovarian, OVCAR 3, 48 hours treatment; read-out: IC50, C3b (OVCAR 3)
Description: (§3) The assay was designed as in the reference, Anticancer Drugs, 2002, 13, 1-8, the disclosure of which is incorporated by reference for the teaching of the assay.
(§4) Cells from cell lines as mentioned in the table given below were seeded at a density of 3000 cells/well in a white opaque 96-well plate. Following incubation at 37° C./5% CO2 for a period of 18-24 hours, the cells were treated with various concentrations (stock solution was prepared in DMSO and subsequent dilutions were made in media as per ATCC guidelines) of the compounds of Example 1-40 was for a period of 48 hours. At the end of treatment, the spent culture medium was discarded, the cells were washed with 1×PBS and 200 μl of 7 μg/ml propidium iodide was added to each well. The plates were frozen at −70° C. for at least 24 hours. For analysis, the plates were brought to RT, allowed to thaw and were read in PoleStar fluorimeter with the fluorescence setting. The percentage of viable cells in the non-treated set of wells was considered to be 100 and the percentage viability following treatment was calculated accordingly. IC50 values were calculated from graphs plotted using these percentages. Table 4 depicts the IC50 values of compounds of Example 1-40 in individual cell lines.
(§5) The abbreviations for the Cell Lines as used in Table 4 are: […]

U 373 = experiment: Cytotoxicity, propidium iodide assay, U 373; assay type: cell-based; conditions: Homo sapiens, U373 MG; Glioblastoma, U 373, 48 hours treatment; read-out: IC50, C7a (U 373)
Description: as §3, §4, §5

PI3Kα kinase = target: T1, PI3Kα kinase (Homo sapiens, UniProt P42336); experiment: PI3Kα assay (32P incorporation into phosphatidylinositol, TLC densitometry); assay type: biochemical; conditions: At 100 nM
T1 construct: purchased Millipore, USA
Description: The assay was designed as in the reference, Cell, 2006, 125, 733-47 (Supplemental Data), the disclosure of which is incorporated by reference for the teaching of the assay.
The kinase reaction was carried out in a 25 μL volume in a 1.5 mL microcentrifuge tube. The reaction mixture consisted of kinase buffer (10 mM Hepes, pH 7.5, 50 mM MgCl2), 20 ng PI3Kα kinase (Millipore, USA), 12.5 μg phosphatidylinositol (PI), 10 μM ATP and 1 μCi ^32γ P dATP. Compounds of Example 1-40 were added at concentrations (stock solution was prepared in DMSO and subsequent dilutions were made in kinase buffer) as mentioned in the table. The reaction mixture was incubated at 30° C. for 20 minutes and was terminated by adding 1:1 mixture of MeOH and chloroform. The tube contents were mixed on a vortex mixer and centrifuged at 10000 rpm for 2 minutes. 10 μL of the organic (lower) phase was spotted on to a TLC plate (silica, mobile phase: n-propanol and 2 M glacial acetic acid in 65:35 ratio). The plates were dried and exposed to an X-ray film. The bands appearing as a result of ^32γ P incorporation in PI were quantitated using the QuantityOne (BioRad, USA) densitometry program. PI-103 (Calbiochem, USA) was used as a standard.

TNF-α = experiment: Human monocyte assay, LPS-stimulated TNF-α (ELISA); assay type: cell-based; conditions: human monocytes, 1 μg/ml LPS, 5 hours, read-out: TNFα (IC50)
Description: as §1, §2

H460 = experiment: Cytotoxicity, propidium iodide assay, H460; assay type: cell-based; conditions: Homo sapiens, NCI-H460; Lung, H460, 48 hours treatment; read-out: IC50, C1b (H460)
Description: as §3, §4, §5

A2780 = experiment: Cytotoxicity, propidium iodide assay, A2780; assay type: cell-based; conditions: Homo sapiens; Ovarian, A2780, 48 hours treatment; read-out: IC50, C3a (A2780)
Description: as §3, §4, §5

PI3K α = experiment: PI3K activity assay, cell-based ELISA of AKT (Ser 473) phosphorylation; conditions: Homo sapiens, Ovarian cell line A2780, 20% FCS stimulation
Description: The assay was designed as in the reference, Biochemical Journal, 2000, 350, 717-722, the disclosure of which is incorporated by reference for the teaching of the assay.
Seed cells (Ovarian cell line A2780, ATCC) were plated in a 96 well microtitre plate at a density of 50,000 cells/cm^2 in appropriate complete cell culture medium. The cells were allowed to adhere for 18-24 hours. The cells were allowed to starve for 24 hours. The cells were pretreated (in triplicates) with the compounds of Example 1-40 (stock solution was prepared in DMSO and subsequent dilutions were made in kinase buffer) at a concentration of 10 μM for one hour. Then the cells were stimulated with 20% FCS for 30 minutes. A typical assay would consist of a set of unstimulated cells, a set of stimulated cells and a set of cells treated with compounds of Example 1-40 and a set of cells treated with the stimulator. The medium was discarded. The cells were fixed with 100 μL of 3.7% formaldehyde for 15 minutes. The formaldehyde was discarded by inverting the plate and tapping it on a thick tissue paper layer to remove traces. The cells were washed and permeabilized with 200 μL PBS+Triton-X 100 solution (hereafter referred to as PBS-Triton, containing 0.1% triton-X 100 in 1×PBS) three times, incubating the cells each time for 5 minutes. 100 μL blocking solution (10% FCS in PBS-Triton) was added and incubated for 1 hour at 25° C. The blocking solution was discarded and cells were incubated with the primary antibody in PBS-Triton at a dilution of 1:500 for 1 hour at RT (25° C.). [The primary antibody is Phospho-AKT (Ser 473); Cell Signaling; USA, Cat. No. 9271]. The primary antibody solution was discarded and the cells were washed 3 times with PBS-Triton solution and incubated with the HRP-conjugated secondary antibody in PBS-Triton at a dilution of 1:500 for 1 hour at RT (25° C.). The cells were washed 3 times with PBS-Triton followed by two washes with PBS (to remove traces of triton-X 100). The OPD (o-phenylene diamine dihydrochloride) substrate was prepared for detection of the signal by dissolving one tablet set (two tablets) of SigmaFast OPD (Sigma, USA, Cat No. P9187) in 20 mL distilled water. It should be kept protected from light. 100 μL OPD solutions was added to the wells and the plate was incubated in the dark for 3-5 minutes (depending upon the development of the color). The reaction was stopped by adding 50 μL 2 NH2SO4. The absorbance was measured at 490 nm. The values were expressed in the treated samples, in terms of percentage or fold decrease in AKT phosphorylation with respect to the induced sample. PI-103 (Calbiochem, USA) was used as a standard.

PC3 = experiment: Cytotoxicity, propidium iodide assay, PC3; assay type: cell-based; conditions: Homo sapiens, PC-3; Prostate, PC3, 48 hours treatment; read-out: IC50, C2a (PC3)
Description: as §3, §4, §5

BxPC3 = experiment: Cytotoxicity, propidium iodide assay, BxPC3; assay type: cell-based; conditions: Homo sapiens, BXPC-3; Pancreatic, BxPC3, 48 hours treatment; read-out: IC50, C5c (BxPC3)
Description: as §3, §4, §5

AsPC 1 = experiment: Cytotoxicity, propidium iodide assay, AsPC 1; assay type: cell-based; conditions: Homo sapiens, ASPC1; Pancreatic, AsPC 1, 48 hours treatment; read-out: IC50, C5b (AsPC 1)
Description: as §3, §4, §5

A549 = experiment: Cytotoxicity, propidium iodide assay, A549; assay type: cell-based; conditions: Homo sapiens; Lung, A549, 48 hours treatment; read-out: IC50, C1a (A549)
Description: as §3, §4, §5

HCT116 = experiment: Cytotoxicity, propidium iodide assay, HCT116; assay type: cell-based; conditions: Homo sapiens, HCT-116; Colon, HCT116, 48 hours treatment; read-out: IC50, C4a (HCT116)
Description: as §3, §4, §5

BT 549 = experiment: Cytotoxicity, propidium iodide assay, BT 549; assay type: cell-based; conditions: Homo sapiens; Breast, BT 549, 48 hours treatment; read-out: IC50, C6d (BT 549)
Description: as §3, §4, §5

MDA MB 468 = experiment: Cytotoxicity, propidium iodide assay, MDA MB 468; assay type: cell-based; conditions: Homo sapiens; Breast, MDA MB 468, 48 hours treatment; read-out: IC50, C6b (MDA MB 468)
Description: as §3, §4, §5

T1 sequence (P42336 whole entry): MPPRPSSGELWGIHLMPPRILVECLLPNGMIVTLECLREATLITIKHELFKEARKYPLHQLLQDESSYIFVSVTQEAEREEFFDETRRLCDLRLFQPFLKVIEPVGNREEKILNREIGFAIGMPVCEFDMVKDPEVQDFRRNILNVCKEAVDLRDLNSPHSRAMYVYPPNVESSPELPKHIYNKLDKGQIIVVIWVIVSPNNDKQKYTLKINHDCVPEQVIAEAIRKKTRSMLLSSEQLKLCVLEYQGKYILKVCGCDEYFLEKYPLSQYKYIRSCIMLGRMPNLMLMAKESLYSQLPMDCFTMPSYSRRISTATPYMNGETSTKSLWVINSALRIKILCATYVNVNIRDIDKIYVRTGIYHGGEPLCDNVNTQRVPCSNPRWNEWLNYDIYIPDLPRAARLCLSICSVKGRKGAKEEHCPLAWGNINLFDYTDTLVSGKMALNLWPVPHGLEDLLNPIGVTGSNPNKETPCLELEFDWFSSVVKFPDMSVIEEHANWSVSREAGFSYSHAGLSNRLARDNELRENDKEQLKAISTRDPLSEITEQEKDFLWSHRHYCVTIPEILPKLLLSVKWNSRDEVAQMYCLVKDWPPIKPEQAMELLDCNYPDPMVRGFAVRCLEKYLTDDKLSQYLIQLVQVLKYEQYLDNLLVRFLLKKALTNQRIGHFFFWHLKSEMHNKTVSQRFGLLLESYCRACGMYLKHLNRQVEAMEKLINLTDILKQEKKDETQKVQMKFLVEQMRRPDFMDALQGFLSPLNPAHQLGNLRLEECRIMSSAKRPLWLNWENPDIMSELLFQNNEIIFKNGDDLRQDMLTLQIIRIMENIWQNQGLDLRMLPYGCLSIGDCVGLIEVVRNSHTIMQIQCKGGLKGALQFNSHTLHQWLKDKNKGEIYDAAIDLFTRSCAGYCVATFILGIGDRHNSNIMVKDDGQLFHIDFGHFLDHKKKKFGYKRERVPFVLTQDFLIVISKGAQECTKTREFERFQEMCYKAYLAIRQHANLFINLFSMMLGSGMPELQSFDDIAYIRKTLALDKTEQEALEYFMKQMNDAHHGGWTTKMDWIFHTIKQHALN
T1 sequence (P27986 whole entry partner): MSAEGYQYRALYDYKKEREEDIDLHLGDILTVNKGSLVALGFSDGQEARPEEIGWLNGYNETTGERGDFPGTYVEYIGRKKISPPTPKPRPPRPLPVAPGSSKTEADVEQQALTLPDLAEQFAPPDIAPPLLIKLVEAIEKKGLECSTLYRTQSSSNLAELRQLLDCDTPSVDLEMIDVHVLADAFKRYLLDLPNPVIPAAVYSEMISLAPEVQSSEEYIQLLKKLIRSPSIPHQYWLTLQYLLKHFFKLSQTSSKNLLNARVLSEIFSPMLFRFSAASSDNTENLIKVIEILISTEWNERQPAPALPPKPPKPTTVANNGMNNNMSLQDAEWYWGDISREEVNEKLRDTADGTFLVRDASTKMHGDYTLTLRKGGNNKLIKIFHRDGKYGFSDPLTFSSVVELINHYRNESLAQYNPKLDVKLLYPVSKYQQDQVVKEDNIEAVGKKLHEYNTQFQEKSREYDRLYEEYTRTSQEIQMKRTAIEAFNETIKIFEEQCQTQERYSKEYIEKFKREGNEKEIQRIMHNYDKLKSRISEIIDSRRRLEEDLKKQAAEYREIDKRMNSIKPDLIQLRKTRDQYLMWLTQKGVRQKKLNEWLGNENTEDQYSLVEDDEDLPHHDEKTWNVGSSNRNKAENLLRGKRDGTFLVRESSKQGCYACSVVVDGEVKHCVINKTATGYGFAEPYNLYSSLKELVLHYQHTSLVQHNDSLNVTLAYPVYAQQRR

| SMILES | IC50 (IL-6) [nM] | IC50 (OVCAR 3) [nM] | IC50 (U 373) [nM] | inhibition at 0.1 µM (PI3Kα kinase) [%] | IC50 (TNF-α) [nM] | IC50 (H460) [nM] | IC50 (A2780) [nM] | inhibition at 10 µM (PI3K α) [%] | IC50 (PC3) [nM] | IC50 (BxPC3) [nM] | IC50 (AsPC 1) [nM] | IC50 (A549) [nM] | IC50 (HCT116) [nM] | IC50 (BT 549) [nM] | IC50 (MDA MB 468) [nM] |
| --- | --- | --- | --- | --- | --- | --- | --- | --- | --- | --- | --- | --- | --- | --- | --- |
| CC(C)(C#N)c1ccc(-n2c(=O)n(S(=O)(=O)c3ccccc3C#N)c3cnc4ccc(Br)cc4c32)cc1 [Example 2, 2-(8-Bromo-1-(4-(2-cyanopropan-2-yl)phenyl)-2-oxo-1H-imidazo[4,5-c]quinolin-3 (2H)-ylsulfonyl)benzonitrile] | 1000 to 10000 | 1000 to 3000 | > 3000 | 10 to 50 | ≤ 1000 | ≤ 1000 | ≤ 1000 | 10 to 50 | ≤ 1000 |  |  |  |  |  |  |
| CC(C)(C#N)c1ccc(-n2c(=O)n(S(=O)(=O)c3ccc(F)cc3F)c3cnc4ccc(Br)cc4c32)cc1 [Example 17, 2-(4-(8-Bromo-3-(2,4-difluorophenylsulfonyl)-2-oxo-2,3-dihydro-1H-imidazo[4,5-c]quinolin-1-yl)phenyl)-2-methylpropanenitrile] | 1000 to 10000 |  |  | 10 to 50 |  | 1000 to 3000 | ≤ 1000 | > 50 | 1000 to 3000 | 1000 to 3000 | 1000 to 3000 | 1000 to 3000 | 1000 to 3000 |  |  |
| CC(C)(C#N)c1ccc(-n2c(=O)n(S(C)(=O)=O)c3cnc4ccc(Br)cc4c32)cc1 [Example 18, 2-(4-(8-Bromo-3-(methylsulfonyl)-2-oxo-2,3-dihydro-1H-imidazo[4,5-c]quinolin-1-yl)phenyl)-2-methylpropanenitrile] | 1000 to 10000 |  |  | 10 to 50 |  | ≤ 1000 | ≤ 1000 |  | 1000 to 3000 | 1000 to 3000 | 1000 to 3000 | 1000 to 3000 | 1000 to 3000 |  |  |
| Cc1cccc(S(=O)(=O)n2c(=O)n(-c3ccc(C(C)(C)C#N)cc3)c3c4cc(Cl)ccc4ncc32)c1 [Example 19, 2-(4-(8-Chloro-2-oxo-3-(m-tolylsulfonyl)-2,3-dihydro-1H-imidazo[4,5-c]quinolin-1-yl)phenyl)-2-methylpropanenitrile] |  | > 3000 |  |  |  | 1000 to 3000 |  |  | 1000 to 3000 | > 3000 |  | ≤ 1000 | > 3000 |  |  |
| CC(=O)c1ccc(S(=O)(=O)n2c(=O)n(-c3ccc(C(C)(C)C#N)cc3)c3c4cc(C)ccc4ncc32)cc1 [Example 25, 2-(4-(3-(4-Acetylphenylsulfonyl)-8-methyl-2-oxo-2,3-dihydro-1H-imidazo[4,5-c]quinolin-1-yl)phenyl)-2-methylpropanenitrile] | > 30000 |  |  |  |  | > 3000 | > 3000 |  | > 3000 |  |  | > 3000 |  | > 3000 | > 3000 |
